Data set [1] has as its system human stromal bladder cells. Put plainly: Basal growth of human stromal bladder cells. It is filed as cell-based. To be noted: FIG. 2. From the text: The Inventors confirmed the presence of vitamin D receptors (VDRs), as previously reported in the literature, on these cells (see below in FIG. 1).
The maximum tolerated dose (MTD) in rats is also listed for each compound (Table 5).

The subject of data set [2] is IFN-γ production by allogeneic PBMC. Put plainly: IFN-γ production in the mixed leukocyte response (MLR). It is filed as cell-based. To be noted: 120 h; MLR of allogeneic PBMC, 5 days, ELISA; read-out: INF-γ IC50. The procedure: Immature dendritic cells (DC) were prepared as described in Romani, N. et al. (Romani, N. et al. (1996) J. Immunol. Meth. 196:137). IFN-γ production by allogeneic T cell activation in the mixed leukocyte response (MLR) was determined as described in Penna, G., et al., J Immunol., 164: 2405-2411 (2000).
Briefly, peripheral blood mononuclear cells (PBMC) were separated from buffy coats by Ficoll gradient and the same number (3×10^5) of allogeneic PBMC from 2 different donors were co-cultured in 96-well flat-bottom plates. The vitamin D3 compounds were added to each of the cultures.

The test system of data set [3] is Renin mRNA in As4.1 cells. Put plainly: Renin mRNA inhibition in murine juxtaglomerular cell line As4.1. It counts as cell-based. As to conditions: Mus musculus, 24 h, real time PCR normalized versus β-actin, read-out: Renin mRNA inh.As4.1/wt. As for the experimental part:
As4.1 cells (80% subconfluent) were treated in complete medium with compounds of the invention at 10^−8, 10^−9 and 10^−10 M for 24 h. Total RNA was extracted using RNeasy Mini kit (Qiagen); treated with DNase I (Qiagen) and Reverse Transcription Reagent (Applied Biosystems) with Random Examers were used for reverse transcription according to the manufacturers' instructions. Real Time PCR analysis was performed in multiplex using commercially available β-actin VIC-conjugated probe (cat. n. 4352341E, Applied Biosystems) and custom designed mRENIN FAM-conjugated probe (Assay by Design, Applied Biosystems; Forward: […]; Reverse: […]; Probe: FAM-[…]-MGB). Reactions were performed in a 25 μL volume containing 12,5 μl 2× Master Mix (Applied Biosystems), 10 ng/reaction/well cDNA, and 2,5 μM each gene-specific primer. An ABI PRISM 7700 analyzer (Applied Biosystems) was used at 50° C. for 2 minutes and 95° C. for 10 minutes, followed by 40 cycles at 95° C. for 15 seconds and 60° C. for 1 minute. Cycle threshold (Ct) values were exported onto Excel worksheets for analysis. Test cDNA results were normalized versus mouse β-actin housekeeping gene. Fold differences in gene expression between the subtracted versus the unsubtracted populations were expressed using the method of 2^−ΔΔCt. (Table 6)

The next data set relates to RT4. As to the kind of experiment: Proliferation assay using bladder cancer cell lines: RT4. It is filed as cell-based, human. As to conditions: Homo sapiens, RT-4; 72 h culture, CyQuant proliferation assay. As for the experimental part:
(§1) Bladder cancer cell lines (T24, RT112, HT1376 and RT4 are human bladder cancer cell lines; NHEK are normal human keratinocytes) were obtained from the European Collection of Cell Cultures (Salisbury, UK). Cells were plated at 3×10^3 per well, in flat bottomed 96-well plates in 100 μl of DMEM medium containing: 5% Fetal Clone 1,50 μg/l gentamicin, 1 mM sodium pyruvate and 1% non-essential amino acids. After culturing for 24 h at 37° C. in 5% CO2, to allow cells to adhere to the plates, VDR ligands (compounds (1)-(14)) were added at concentrations ranging from 100 μM to 0.3 μM in 100 μl of above-mentioned complete medium. After a further 72 h of culture, cell proliferation was measured using a fluorescence-based proliferation assay kit. (CyQuant Cell Proliferation Assay Kit, Molecular Probes, Eugene, Oreg., USA). The IC50 was calculated from the regression curve of the titration data.

A further data set deals with NHEK. As to the kind of experiment: Proliferation assay: NHEK normal human keratinocytes. It counts as cell-based. As to conditions: 72 h culture, CyQuant proliferation assay. The procedure: as §1
Another data set concerns RT112. Put plainly: Proliferation assay using bladder cancer cell lines: RT112. It is filed as cell-based, human. To be noted: Homo sapiens, RT-112; 72 h culture, CyQuant proliferation assay. The procedure:
as §1

Data set [4] is described as follows: Determination of Maximum Tolerated Dose (MTD) in mice. To be noted: mouse, in vivo, po; female C57BL/6 mice, p.o. daily for four days; highest dose without hypercalcemia (serum calcium >10.7 mg/dl).
A short description of data set [5]: Theoretical maximum absorbable dose (MAD), human intestine. As to conditions: calculated using PAMPA permeability. As for the experimental part:
(§2) To evaluate the intestinal absorption potential of selected compounds, the maximum absorbable dose (MAD) in mouse, rat and human intestines was also calculated using a modification of the original equation (Johnson 1996, Hilgers 2003): MAD (mg)=S·Pe·(A/ILV)·SIV·SITT (Eq. 1), where S is the solubility measured at pH 7.4 (mg/ml), Pe is the permeability measured in artificial membranes (PAMPA) or in the apical to basolateral direction of Caco-2 cells (cm/sec), A is the intestinal surface area (cm^2), ILV is the intestinal lumen volume (cm^3), SIV is the small intestinal volume (ml) and SITT is the small intestinal transit time (sec).

Data set [6] concerns the target T1, human cDNA expressed CYP3A4 (Homo sapiens, UniProt P08684).
T1 construct: purchased Gentest
As to the kind of experiment: Metabolic stability (hCYP3A4). As to conditions: 2 μM, 60 min at 37° C. It counts as in vitro ADME. As for the experimental part:
Metabolic Stability (hCYP34A4). The relative stability of the substrate was determined by measuring the amount of substrate remaining following incubation with human cDNA expressed CYP3A4 microsomal preparations (Gentest, 6 pmol) against a control microsomal incubation containing no active cytochrome P450. The assay was performed in a 96-well plate format. Each compound was incubated at a concentration of 2 μM for 60 min at 37° C. LC-MS/MS was used for determining the compound remaining after incubation. The results were expressed as % remaining.

Data set [7] is described as follows: Theoretical maximum absorbable dose (MAD), mouse intestine. To be noted: calculated using PAMPA permeability. As for the experimental part: as §2
A short description of data set [8]: Solubility in aqueous buffer. It is filed as physicochemical. To be noted: kinetic from dmso stock; for solubility at 2 h: pH 7, 2 h; for solubility at 24 h: pH 7, 24 h; for solubility: pH 7.4, aqueous buffer. The procedure:
[…] A 96-well plate format assay was used. […] Solutions were filtered through a 0.22 μm and concentrations of the concentration of the compound in the filtrate was determined using LC-MS/MS in comparison with 1 and 10 μM standards. The measurements were expressed as mM.

Data set [9] is described as follows: Permeability by passive diffusion (PAMPA). It is filed as in vitro ADME. As to conditions: for PAMPA % Memb: % retention in the membrane; for Papp at 4 h, 10 μM: PAMPA, pH 7.4, Table 8. As for the experimental part: Permeability by Passive Diffusion (PAMPA). Experiments were performed in 96-well acceptor and donor plates using 15% soy lecithin in n-dodecane artificial membranes. The acceptor plate (96 well hydrophobic filter plate (MAIP N45, Millipore)) was prepared by adding 4 μL of artificial membrane material on the top of the filter and the plate was filled with 200 μL of HEPES buffered HBSS (pH 7.4). The donor plate (an indented 96-well plate from p-ION, MA) was filled with 200 μL of HEPES buffered HBSS (pH 7.4) containing 10 μM of the test compounds. The acceptor plate was placed onto the donor plate to form a “sandwich” and was incubated at 37° C. for 4 hours. After the incubation period, acceptor, donor and initial donor solution (reference) were analysed via LC-MS/MS. Data were reported as bilateral Peff in cm×10^−6/sec and % retention in the membrane.

The test system of a further data set is Caco-2 cells. Put plainly: Apparent permeability on Caco-2 cells. It is filed as in vitro ADME, Human. As for the experimental part:
Apparent Permeability on Caco-2 cells. Human colon adenocarcinoma (Caco-2) cells were obtained from the American Type Culture Collection (Rockville, Md.). Permeability studies were performed using a 24-well format in both transport directions, apical to basolateral (A→B) and basolateral to apical (B→A), on Caco-2 monolayers. Fresh donor solution containing 10 μM test compound was added to either the apical or the basolateral side, while drug-free medium was placed on the opposite side. The 24-transwell plates were placed on a plate shaker at 37° C. After 2 h, the buffer from the receiving and donor chambers were collected and aliquots were analysed via LC-MS/MS. The data reported were the permeability cm·10^−6/sec and the efflux ratio.

The nature of data set [10]: Theoretical maximum absorbable dose (MAD), rat intestine. As to conditions: calculated using PAMPA permeability. The procedure:
as §2

The structures appear in SMILES notation. Converted amounts (≈) assume the structure as drawn. A value given as a limit tells only on which side of the number the result lay.

T1 sequence (P08684 whole entry): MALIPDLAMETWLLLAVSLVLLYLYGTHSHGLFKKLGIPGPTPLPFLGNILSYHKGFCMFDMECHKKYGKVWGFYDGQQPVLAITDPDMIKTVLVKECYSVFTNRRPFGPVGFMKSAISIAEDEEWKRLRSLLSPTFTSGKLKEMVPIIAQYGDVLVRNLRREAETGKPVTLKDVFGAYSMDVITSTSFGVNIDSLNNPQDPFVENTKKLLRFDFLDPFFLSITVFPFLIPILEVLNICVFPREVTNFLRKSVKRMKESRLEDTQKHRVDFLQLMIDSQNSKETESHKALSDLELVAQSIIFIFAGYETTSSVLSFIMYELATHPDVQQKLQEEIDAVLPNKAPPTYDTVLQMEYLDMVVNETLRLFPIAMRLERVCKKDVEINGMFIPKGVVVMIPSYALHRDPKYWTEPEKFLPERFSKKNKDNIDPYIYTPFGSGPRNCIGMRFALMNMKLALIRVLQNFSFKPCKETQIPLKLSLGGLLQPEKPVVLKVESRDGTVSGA

Consider `C=C1/C(=C\C=C2/CCC[C@]3(C)C(C4(CC#CC(O)(C(F)(F)F)C(F)(F)F)CC4)=CCC23)CC(O)C[C@@H]1O` (stereo partly drawn) [Compound 4, 1α,25-Dihydroxy-16-ene-20-cyclopropyl-23,24-yne-26,27 hexafluoro-cholecalciferol], for which the “inhibiting the basal growth of bladder cells” value (“inhibiting the basal growth” below) in data set [1] is listed as “effective”. The IC50 was determined as 0.045 nM in data set [2]; 2.99 nM in data set [3]; 1700 nM in the data set with RT4; 2000 nM in the data set with NHEK; 13800 nM in the data set with RT112. Moreover, the maximal tolerated dose (MTD) at 4 days in data set [4] is 0.3 µg/kg.

`C=C1/C(=C\C=C2/CCC[C@]3(C)C(C4(C/C=C/C(O)(C(F)(F)F)C(F)(F)F)CC4)=CCC23)CC(O)C[C@@H]1O` (stereo partly drawn) [Compound 6, 1α,25-Dihydroxy-16-ene-20-cyclopropyl-23,24-E-ene-26,27-hexafluoro-cholecalciferol]: in data set [1], the “inhibiting the basal growth” value was “effective”. The IC50 in [2] was determined as 0.04 nM; in data set [3], 0.547 nM; with RT4, 2300 nM; with NHEK, 5800 nM; with RT112, 10600 nM. For the same compound, in [4], the MTD at 4 days was 0.3 µg/kg.

With `C[C@]12CCC/C(=C\C=C3\CC(O)C[C@H](O)C3)C1CC=C2C1(C/C=C\C(O)(C(F)(F)F)C(F)(F)F)CC1` (stereo partly drawn) [Compound 7, 1α,25-Dihydroxy-16-ene-20-cyclopropyl-23,24-Z-ene-26,27-hexafluoro-19-nor-cholecalciferol], the IC50 in [2] is 0.055 nM; in data set [3], 2.58 nM; in the data set on RT4, 2200 nM; with NHEK, 4400 nM; with RT112, 9600 nM. Also, in data set [5], the “MAD (ug) human (PAMPA)” value was 2788.31 µg. The CYP3A4 stability in data set [6] was 58.3 % remaining. In addition, the “MAD (ug) mouse (PAMPA)” value in [7] was 8.20 µg. Moreover, in data set [8], the solubility at 2 h amounted to 4.2 µM (≈ 2.19 µg/mL). In data set [8], this compound registered a solubility at 24 h of 4.1 µM (≈ 2.13 µg/mL). Moreover, the concentration in solution in data set [8] (solubility) came to 2.17 µg/mL (≈ 4.16 µM). Moreover, the “PAMPA % Memb” value in data set [9] was 58.1%. In addition, the apparent permeability (Papp) at 4 h, 10 μM in [9] was 47.8 ×10⁻⁶ cm/s. The “Papp_A > B” value in the data set on Caco-2 cells (apical to basolateral, 10 μM, 2 h) is on record as 0.0 cm·10^−6/sec. Further, the “Caco2 Papp_AB” value in the data set with Caco-2 cells (apical to basolateral, Table 8) is listed as 0.00 10-6 cm/sec. For the same compound, the Mass Bal A > B in the data set with Caco-2 cells (apical to basolateral, unit assumed) was 13.1%. The Mass Bal B > A in the data set with Caco-2 cells (basolateral to apical) is 83.3%. In the data set with Caco-2 cells (basolateral to apical, 10 μM, 2 h), the “Papp_B >” value is on record as 0.0 cm·10^−6/sec. Moreover, the “Caco2 Papp_BA” value with Caco-2 cells (basolateral to apical, Table 8) is 0.00 10-6 cm/sec. The maximal tolerated dose (MTD) at 4 days in data set [4] is 0.3 µg/kg. In data set [10], the “MAD (ug) rat (PAMPA)” value was 39.99 µg.

On to `C=C1/C(=C\C=C2/CCC[C@]3(C)C(C4(C/C=C\C(O)(C(F)(F)F)C(F)(F)F)CC4)=CCC23)CC(O)C[C@@H]1O` (stereo partly drawn) [Compound 8, 1α,25-Dihydroxy-16-ene-20-cyclopropyl-23,24-Z-ene-26,27-hexafluoro-cholecalciferol], for which, in data set [1], the “inhibiting the basal growth” value was “effective”. The IC50 in data set [2] came out at 0.033 nM; in data set [3] it was 1.6 nM; in the data set on RT4, 3300 nM; in the data set with NHEK, 3600 nM; with RT112, 15500 nM. In addition, in data set [5], the “MAD (ug) human (PAMPA)” value was 716.81 µg. In data set [6], this compound yielded a CYP3A4 stability of 52.7 % remaining. The “MAD (ug) mouse (PAMPA)” value in data set [7] is 2.11 µg. Further, the solubility at 2 h in data set [8] is less than 1 µM. Also, the concentration in solution in data set [8] (solubility at 24 h) came to 1.6 µM (≈ 0.852 µg/mL). For the same compound, the concentration in solution in data set [8] (solubility) was 0.533 µg/mL (≈ 1 µM). Also, the “PAMPA % Memb” value in data set [9] worked out at 57.6%. Also, in [9], the apparent permeability coefficient (Papp) at 4 h, 10 μM turned out to be 50 ×10⁻⁶ cm/s. For the same compound, the MTD at 4 days in [4] is 1 µg/kg. The “MAD (ug) rat (PAMPA)” value in data set [10] was 10.28 µg.

The record behind these values is patent US20080318911A1, “20-Cyclopropyl, 26,27-Alkyl/Haloalkyl Vitamin D3 Compounds and Methods of Use Thereof” (BIOXELL S.P.A., priority 2004, published 2008).
